Values of other authors in US12667644B2, “Iodine-infused ultra high molecular weight polyethylene” (Biomet Manufacturing, LLC, priority 2019, dated 2026).

System: microbes

povidone-iodine
minimum concentration required to achieve antimicrobial activity: about 2 ppm
